Legend:
[1] = tested on: separated upper stipes of Agaricus bisporus; test: Elongation of separated upper stipes on test agar containing ODA, storage at 12° C.; parameters: species or system Agaricus bisporus (hybrid off-white)
Experimental: Four type strains of mushrooms were used: the white, off-white, hybrid white (U3) and hybrid off-white (U1). Mushrooms from each flush were harvested before the veil was broken. Freshly harvested mushrooms were transported within about one hour after harvest to Borland Laboratory and placed in the pilot plant cold room (4° C.) for about two hours before sampling. Mushrooms were sorted on the basis of size and appearance. Diseased, damaged, misshapen, veil-opened and extremely large or small mushrooms (>40 or <25 mm in cap diameter) were discarded. Mushrooms of uniform size (25-40 mm) and maturity of the button stage (stage 1, veil intact tightly) were used in this research.
Whole stipes were cut at the lower portions to a length of 7-9 mm to standardize the sample, and marked at the middle of the veil, which is the location where the veil attaches to the stipe, to indicate the upper and lower stipes. The separated stipes contained 2-4 mm of upper stipes and 5-6 nun of lower stipes. For the study using separated upper stipes, mushrooms were dissected directly into upper stipes with a length of 3-5 mm. The separated stipes or upper stipes were put upside down on the test agar containing various mushroom supernatants or ODA concentrations; i.e., the upper sides in contact with the agar surface (FIG. 12). All petri dishes were covered and stored at 12° C. The length of separated stipes and upper stipes was measured using a vernier caliper before and after certain days of storage.
Sterile ODA solutions were aseptically added into the autoclaved agar solutions to achieve the desired final ODA concentrations. The agar solution was then dispensed into dishes, ca 20.8 mL per dish. The level of ODA tested included 10^-4, 10^-5, 10^-6, 10^-7, and 10^-8 M. Mushrooms (hybrid off-white) from 6 different crops were used to study their postharvest growth. In the first 2 experiments, mushroom stipes were measured after 4-day storage at 12° C. In order to prevent stipe deterioration and desiccation of the test agar, in the following experiments mushroom stipes were measured after 3-day storage at 12° C.
The experimental data were subjected to a single classification analysis of variance (AOV) for a completely randomized design (Steele et al., 1980). Fisher's protected least significant difference (LSD) was applied to separate the means. The level of significance used in this research was 0.05.
Since the upper stipe was the major portion which responded to crude preparations of ODA, the following experiment used only upper stipes and applied pure ODA solns to the test agar. Because desiccation of the test agar sometimes occurred after 4 days of storage, in the third replication of this experiment and in subsequent experiments, the stipes were measured after 3 days of storage.

[2] = tested on: separated stipes of Agaricus bisporus; test: Elongation of separated stipes on test agar containing mushroom supernatants, 6-day storage at 12° C.; parameters: species or system Agaricus bisporus (off-white); conditions: as a function of added ODA
Experimental: Whole stipes were cut at the lower portions to a length of 7-9 mm to standardize the sample, and marked at the middle of the veil, which is the location where the veil attaches to the stipe, to indicate the upper and lower stipes. The separated stipes contained 2-4 mm of upper stipes and 5-6 nun of lower stipes. […] The length of separated stipes and upper stipes was measured using a vernier caliper before and after certain days of storage.
Sterile mushroom supernatants (25 mL), phosphate buffer and deionized H2 O were added aseptically into 175 mL agar solution prior to dispensing into dishes. […] The concentrations of ODA in the 2% agar were calculated to be 3.4×10^-6, 6.0×10^-5, and 1.2×10^-4 M for treatments 3, 4 and 5. […]

[3] = Solubility; type: physicochemical

What does the source list for `O=C/C=C/CCCCCCC(=O)O` [ODA, 10-oxo-trans-8-decenoic acid]?
% Elongation of upper stipes ([1]; ODA 10^-4 M (18.4 ppm), rep 1, 4-day storage, control 34.3): 34.8%; % Elongation of upper stipes ([1]; ODA 10^-4 M (18.4 ppm), rep 2, 4-day storage, control 33.3): 40.1%; % Elongation of upper stipes ([1]; ODA 10^-4 M (18.4 ppm), rep 3, 3-day storage, control 20.5): 17.7%; % Elongation of upper stipes ([1]; ODA 10^-5 M (1.84 ppm), rep 1, 4-day storage, control 34.3): 35.5%; % Elongation of upper stipes ([1]; ODA 10^-5 M (1.84 ppm), rep 2, 4-day storage, control 33.3): 36.5%; % Elongation of upper stipes ([1]; ODA 10^-5 M (1.84 ppm), rep 3, 3-day storage, control 20.5): 19.3%; % Elongation of upper stipes ([1]; ODA 10^-6 M (0.184 ppm), rep 1, 4-day storage, control 34.3): 39.9%; % Elongation of upper stipes ([1]; ODA 10^-6 M (0.184 ppm), rep 2, 4-day storage, control 33.3): 35.7%; % Elongation of upper stipes ([1]; ODA 10^-6 M (0.184 ppm), rep 3, 3-day storage, control 20.5): 16.6%; % Elongation of upper stipes ([1]; ODA 10^-7 M (0.0184 ppm), rep 1, 4-day storage, control 34.3): 41.0%; % Elongation of upper stipes ([1]; ODA 10^-7 M (0.0184 ppm), rep 2, 4-day storage, control 33.3): 42.3%; % Elongation of upper stipes ([1]; ODA 10^-7 M (0.0184 ppm), rep 3, 3-day storage, control 20.5): 18.1%; % Elongation of upper stipes ([1]; ODA 10^-8 M (0.00184 ppm), rep 1, 4-day storage, control 34.3): 30.1%; % Elongation of upper stipes ([1]; ODA 10^-8 M (0.00184 ppm), rep 2, 4-day storage, control 33.3): 39.6%; % Elongation of upper stipes ([1]; ODA 10^-8 M (0.00184 ppm), rep 3, 3-day storage, control 20.5): 15.8%; elongation of upper stipes among treatments (in words) ([1]; pure ODA, upper stipes only): no differences; elongation of lower stipes (in words) [2]: no differences; solubility ([3]; acetone, chloroform, ethanol, ethyl ether, methanol, methylene chloride and water): soluble; solubility ([3]; non-polar solvents such as pentane, hexane, heptane and benzene): slightly soluble
